pIC50: −log10 of the molar value.
Biological target: human IL-17A / human IL-17RA (Homo sapiens (Human), UniProt Q16552)
Experiment: Human IL-17A biochemical assay (HTRF, blocking of IL-17A binding to IL-17RA)
Details: 0.4 nM IL-17A, 0.3 nM IL-17RA, max compound concentration 10 uM
Method: Compounds disclosed herein were tested for blocking of human IL-17A (Cat: C774, novoprotein) protein with its receptor human IL-17RA (Cat: C153, novoprotein) in an assay based on Homogeneous Time Resolved Fluorescence. 0.4 nM recombinant human IL-17A protein was pre-incubated with a serial dilution of compounds disclosed herein (maximum concentration is 10 uM, 2.7-fold serially diluted, 10 points) at room temperature for 3 hours in an assay buffer containing 20 mM HEPES, pH 7.5, 50 mM NaCl, 0.1% BSA, 0.2 mM DTT, 0.005% Tween 20. Then 0.3 nM recombinant human IL-17RA was added to plate and further incubated at room temperature for 1 hour. After that Mab Anti-6His Tb cryptate Gold (Cat: 61HI2TLB, Cisbio Bioassays) and MAb Anti Human IgG-XL665 (Cat: 61HFCXLB, Cisbio Bioassays) were added to plate and further incubated at room temperature for 1 hour. The HTRF signals (ex337 nm, em620 nm/665 nm) were read on BMG PHERAstar FSX instrument. The inhibition percentage of human IL-17A interaction with its receptor human IL-17RA in presence of increasing concentrations of compounds was calculated based on the ratio of […]. The IC50 for each compound was derived from fitting the data to the four-parameter logistic equation by Dotmatics.

Chain of human IL-17A / human IL-17RA (Q16552 24-155): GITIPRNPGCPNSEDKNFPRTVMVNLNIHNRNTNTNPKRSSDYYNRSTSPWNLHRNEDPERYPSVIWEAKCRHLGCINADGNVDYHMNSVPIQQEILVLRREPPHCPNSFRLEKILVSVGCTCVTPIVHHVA

Structure (SMILES) | pIC50
CNC(=O)C1(N2C[C@@H](C(C)C)NC2=O)Cc2ccc(NC(=O)[C@@H](NC(=O)c3ccnn3C)C3CCOCC3)cc2C1 (stereo partly drawn) [Example 85, N-((1S)-2-((2-((R)-4-isopropyl-2-oxoimidazolidin-1-yl)-2-(methylcarbamoyl)-2,3-dihydro-1H-inden-5-yl)amino)-2-oxo-1-(tetrahydro-2H-pyran-4-yl)ethyl)-1-methyl-1H-pyrazole-5-carboxamide] | 5.00
CNC(=O)C1(N2CC(CC3CCCCC3)NC2=O)Cc2ccc(NC(=O)[C@@H](NC(=O)c3ccnn3C)C3CCCCC3)cc2C1 (stereo partly drawn) [Example 88, N-((1S)-1-cyclohexyl-2-((2-(4-(cyclohexylmethyl)-2-oxoimidazolidin-1-yl)-2-(methylcarbamoyl)-2,3-dihydro-1H-inden-5-yl)amino)-2-oxoethyl)-1-methyl-1H-pyrazole-5-carboxamide] | 5.69
CNC(=O)C1(N2CC(C3CCc4ccccc43)NC2=O)Cc2ccc(NC(=O)[C@@H](NC(=O)c3ccnn3C)C3CCCCC3)cc2C1 (stereo partly drawn) [Example 92, N-((1S)-1-cyclohexyl-2-((2-(4-(2,3-dihydro-1H-inden-1-yl)-2-oxoimidazolidin-1-yl)-2-(methylcarbamoyl)-2,3-dihydro-1H-inden-5-yl)amino)-2-oxoethyl)-1-methyl-1H-pyrazole-5-carboxamide] | 5.52
CNC(=O)C1(N2C[C@@H](C(C)C)NC2=O)Cc2ccc(NC(=O)[C@H](NC(=O)c3ccnn3C)C(C3CC3)C3CC3)cc2C1 (stereo partly drawn) [Example 93, N-((2R)-1,1-dicyclopropyl-3-((2-((R)-4-isopropyl-2-oxoimidazolidin-1-yl)-2-(methylcarbamoyl)-2,3-dihydro-1H-inden-5-yl)amino)-3-oxopropan-2-yl)-1-methyl-1H-pyrazole-5-carboxamide] | 6.08
CNC(=O)C1(N2CCC(C)NC2=O)Cc2ccc(NC(=O)[C@@H](NC(=O)c3ccnn3C)C3CCCCC3)cc2C1 (stereo partly drawn) [Example 95, N-((1S)-1-cyclohexyl-2-((2-(4-methyl-2-oxotetrahydropyrimidin-1(2H)-yl)-2-(methylcarbamoyl)-2,3-dihydro-1H-inden-5-yl)amino)-2-oxoethyl)-1-methyl-1H-pyrazole-5-carboxamide] | 5.37
CNC(=O)C1(N2C[C@@H](CCc3ccccc3)NC2=O)Cc2ccc(NC(=O)[C@@H](NC(=O)c3ccnn3C)C3CCCCC3)cc2C1 (stereo partly drawn) [Example 96, N-((1S)-1-cyclohexyl-2-((2-(methylcarbamoyl)-2-((R)-2-oxo-4-phenethylimidazolidin-1-yl)-2,3-dihydro-1H-inden-5-yl)amino)-2-oxoethyl)-1-methyl-1H-pyrazole-5-carboxamide] | 5.64
CNC(=O)C1(N2C[C@@H](C(C)C)NC2=O)Cc2ccc(NC(=O)[C@@H](NC(=O)c3ccn(CCO)n3)C3CCCCC3)cc2C1 (stereo partly drawn) [Example 103, N-((1S)-1-cyclohexyl-2-((2-((R)-4-isopropyl-2-oxoimidazolidin-1-yl)-2-(methylcarbamoyl)-2,3-dihydro-1H-inden-5-yl)amino)-2-oxoethyl)-1-(2-hydroxyethyl)-1H-pyrazole-3-carboxamide] | 5.57
CNC(=O)C1(N2CC(C)(Cc3ccccc3)CNC2=O)Cc2ccc(NC(=O)[C@@H](NC(=O)c3ccnn3C)C3CCCCC3)cc2C1 (stereo partly drawn) [Example 109, N-((1S)-2-((2-(5-benzyl-5-methyl-2-oxotetrahydropyrimidin-1(2H)-yl)-2-(methylcarbamoyl)-2,3-dihydro-1H-inden-5-yl)amino)-1-cyclohexyl-2-oxoethyl)-1-methyl-1H-pyrazole-5-carboxamide] | 5.46
CNC(=O)C1(N2C[C@@H](C(C)C)NC2=O)Cc2ccc(NC(=O)C(Cc3cc(Cl)ccc3Cl)NC(=O)c3ccnn3C)cc2C1 (stereo partly drawn) [Example 127, N-(3-(2,5-dichlorophenyl)-1-((2-((R)-4-isopropyl-2-oxoimidazolidin-1-yl)-2-(methylcarbamoyl)-2,3-dihydro-1H-inden-5-yl)amino)-1-oxopropan-2-yl)-1-methyl-1H-pyrazole-5-carboxamide] | 6.16
CNC(=O)C1(N2CC3(CC3)CNC2=O)Cc2ccc(NC(=O)[C@@H](NC(=O)c3ccn(C4CC(O)C4)n3)C3CCCCC3)cc2C1 (stereo partly drawn) [Example 133, N-((1S)-1-cyclohexyl-2-((2-(methylcarbamoyl)-2-(6-oxo-5,7-diazaspiro[2.5]octan-5-yl)-2,3-dihydro-1H-inden-5-yl)amino)-2-oxoethyl)-1-(3-hydroxycyclobutyl)-1H-pyrazole-3-carboxamide] | 6.49
CNC(=O)C1(N2CCCNC2=O)Cc2ccc(NC(=O)[C@@H](NC(=O)c3ccnn3C)C3CCCCC3)cc2C1 (stereo partly drawn) [Example 134, N-((1S)-1-cyclohexyl-2-((2-(methylcarbamoyl)-2-(2-oxotetrahydropyrimidin-1(2H)-yl)-2,3-dihydro-1H-inden-5-yl)amino)-2-oxoethyl)-1-methyl-1H-pyrazole-5-carboxamide] | 6.51
CNC(=O)C1(N2CC(Cc3ccc(C#N)cc3)NC2=O)Cc2ccc(NC(=O)[C@@H](NC(=O)c3ccnn3C)C3CCCCC3)cc2C1 (stereo partly drawn) [Example 140, N-((1S)-2-((2-(4-(4-cyanobenzyl)-2-oxoimidazolidin-1-yl)-2-(methylcarbamoyl)-2,3-dihydro-1H-inden-5-yl)amino)-1-cyclohexyl-2-oxoethyl)-1-methyl-1H-pyrazole-5-carboxamide] | 6.56
CNC(=O)C1(N2CC3(CC3)CNC2=O)Cc2ccc(NC(=O)[C@@H](NC(=O)c3cnc4c(C#N)cccn34)C3CCCCC3)cc2C1 (stereo partly drawn) [Example 180, 8-cyano-N-((1S)-1-cyclohexyl-2-((2-(methylcarbamoyl)-2-(6-oxo-5,7-diazaspiro[2.5]octan-5-yl)-2,3-dihydro-1H-inden-5-yl)amino)-2-oxoethyl)imidazo[1,2-a]pyridine-3-carboxamide] | 5.43
Cc1nonc1C(=O)N[C@H](C(=O)Nc1ccc2c(c1)CC(C(=O)Nc1ccc(C(F)(F)F)c(Cl)c1)(N1C[C@@H](C(C)C)NC1=O)C2)C(C1CC1)C1CC1 (stereo partly drawn) [Example 260, N-((2S)-1-((2-((3-chloro-4-(trifluoromethyl)phenyl)carbamoyl)-2-((R)-4-isopropyl-2-oxoimidazolidin-1-yl)-2,3-dihydro-1H-inden-5-yl)amino)-3,3-dicyclopropyl-1-oxopropan-2-yl)-4-methyl-1,2,5-oxadiazole-3-carboxamide] | < 5.00
Cc1nonc1C(=O)N[C@H](C(=O)Nc1ccc2c(c1)CC(C(=O)Nc1ccc(Cl)cc1Cl)(N1C[C@@H](C(C)C)NC1=O)C2)C(C1CC1)C1CC1 (stereo partly drawn) [Example 264, N-((2S)-1,1-dicyclopropyl-3-((2-((2,4-dichlorophenyl)carbamoyl)-2-((R)-4-isopropyl-2-oxoimidazolidin-1-yl)-2,3-dihydro-1H-inden-5-yl)amino)-3-oxopropan-2-yl)-4-methyl-1,2,5-oxadiazole-3-carboxamide] | 5.60
Cc1nonc1C(=O)N[C@H](C(=O)Nc1ccc2c(c1)CC(C(=O)Nc1cc(Cl)cc(Cl)c1)(N1C[C@@H](C(C)C)NC1=O)C2)C(C1CC1)C1CC1 (stereo partly drawn) [Example 265, N-((2S)-1,1-dicyclopropyl-3-((2-((3,5-dichlorophenyl)carbamoyl)-2-((R)-4-isopropyl-2-oxoimidazolidin-1-yl)-2,3-dihydro-1H-inden-5-yl)amino)-3-oxopropan-2-yl)-4-methyl-1,2,5-oxadiazole-3-carboxamide] | 5.09

Source: patent US20250154138A1, “Small Molecule IL-17A Modulators” (BeiGene, Ltd., priority 2022, published 2025)
